# Tests used:
# Assay type in all cases: cell-based
# [1] = test system: S. aureus ATCC 33591 (methicillin-resistant); experiment: broth microdilution MIC assay, S. aureus 33591; settings: Staphylococcus aureus, ATCC33591; S. aureus 33591, methicillin-resistant; read-out: MIC, S. aureus 33591
# Description: (§1) To determine the ability of test compounds to inhibit the growth of bacterial strains, classic cell-based broth microdilution MIC assays were employed. MIC assays are performed according to CLSI methods except where otherwise noted (CLSI, 2011 and CLSI, 2009). The reference strains S. aureus ATCC 29213 (methicillin sensitive), S. aureus ATCC 33591 (methicillin-resistant), E. coli ATCC 25922 (wild-type/QC strain), P. aeruginosa ATCC 27853 (wild-type/QC strain), and the clinical isolate P. aeruginosa PA 8 were used to determine the ability of the exemplary carbapenem compounds to inhibit bacterial growth. An expanded panel of methicillin resistance S. aureus (MRSA) and Pseudomonas was also used to determine the ability of exemplary carbapenem compounds to inhibit bacterial growth across a broader representation of those species. To determine activity in MRSA and in addition to S. aureus ATCC 33591, S. aureus USA 300 and USA 600, some of the most common clones found to cause human infection, were also used. To further gauge the impact on the carbapenem compounds due to various resistance mechanisms in Pseudomonas, the following strains were included: P. aeruginosa 35151 (hyper-permeable strain), P. aeruginosa ΔmexAB-OprM (an efflux pump knockout), and P. aeruginosa Paβ-173 (a clinical isolate of reduced carbapenem susceptibility). Briefly, cryo-preserved bacterial cultures of clinical strains are streaked for isolation on appropriate agar medium, in this case Mueller Hinton II agar. Following incubation to allow formation of colonies, these plates are sealed with parafilm and stored refrigerated for up to two weeks. For preparation of assay inocula and to ensure low variability, at least 5 colonies are picked from the agar plates with an inoculating loop and aseptically transferred to a culture tube containing 3 mL of Mueller-Hinton Broth (supplemented with divalent cations to required levels based on Manufacturers' specification). The broth culture is grown for 3-5 hours at 37° C. with shaking at 200 rpm. Meanwhile, 2-fold serial dilutions of test compounds are conducted in a 96 well plate with a final volume of 75 μL per well at 2-fold the final desired concentration. After the dilution plates are set up the growing cultures are then diluted in a cuvette containing MH II broth and the optical density is measured at 600 nm. Inocula are diluted such that 75 μL of this culture in Mueller-Hinton Broth results in a starting bacterial concentration of 5×10^5 CFU/mL when added to the dilution plates. The plates are incubated 16-20 hours at 37° C. The MIC is read visually as the lowest concentration well with no bacterial growth.
# S. aureus USA 300 = experiment: broth microdilution MIC assay, S. aureus USA300; settings: Staphylococcus aureus; S. aureus USA300 (MRSA); read-out: MIC, S. aureus USA300
# Description: as §1
# S. aureus USA 600 = experiment: broth microdilution MIC assay, S. aureus USA600; settings: Staphylococcus aureus; S. aureus USA600 (MRSA); read-out: MIC, S. aureus USA600
# Description: as §1
# [2] = test system: E. coli ATCC 25922 (wild-type/QC strain); experiment: broth microdilution MIC assay, E. coli 25922; settings: Escherichia coli, ATCC25922; read-out: MIC, E. coli 25922
# Description: as §1
# [3] = test system: P. aeruginosa ATCC 27853 (wild-type/QC strain); experiment: broth microdilution MIC assay, P. aeruginosa 27853; settings: Pseudomonas aeruginosa, ATCC27853; read-out: MIC, P. aeruginosa 27853
# Description: as §1
# [4] = test system: P. aeruginosa 35151 (hyper-permeable strain); experiment: broth microdilution MIC assay, P. aeruginosa 35151; settings: Pseudomonas aeruginosa, read-out: MIC, P. aeruginosa 35151
# Description: as §1
# [5] = test system: P. aeruginosa ΔmexAB-OprM (an efflux pump knockout); experiment: broth microdilution MIC assay, P. aeruginosa ΔmexAB-OprM; settings: Pseudomonas aeruginosa, read-out: MIC, P. aeruginosa ΔmexAB-OprM
# Description: as §1
# P. aeruginosa Paeβ-17 = experiment: broth microdilution MIC assay, P. aeruginosa Paeβ-17; settings: Pseudomonas aeruginosa, read-out: MIC, P. aeruginosa Paeβ-17
# Description: as §1
Compound,MIC [1] [µg/mL],MIC (S. aureus USA 300) [µg/mL],MIC (S. aureus USA 600) [µg/mL],MIC [2] [µg/mL],MIC [3] [µg/mL],MIC [4] [µg/mL],MIC [5] [µg/mL],MIC (P. aeruginosa Paeβ-17) [µg/mL]
"C[C@@H](O)[C@H]1C(=O)N2C(C(=O)O)=C(S[C@@H]3CCN(Cc4ccc(N)nc4)C3)[C@H](C)[C@H]12 [Example 25, (4R,5S,6S)-3-(((R)-1-((6-aminopyridin-3-yl)methyl)pyrrolidin-3-yl)thio)-6-((R)-1-hydroxyethyl)-4-methyl-7-oxo-1-azabicyclo[3.2.0]hept-2-ene-2-carboxylic acid]",8 to 32,1 to 4,1 to 4,< 1,8 to 32,< 1,1 to 4,> 32
"C[C@@H](O)[C@H]1C(=O)N2C(C(=O)O)=C(SC3CN(CC4CCN(C(=N)N)CC4)C3)[C@H](C)[C@H]12 [Example 26, (4R,5S,6S)-3-((1-((1-carbamimidoylpiperidin-4-yl)methyl)azetidin-3-yl)thio)-6-((R)-1-hydroxyethyl)-4-methyl-7-oxo-1-azabicyclo[3.2.0]hept-2-ene-2-carboxylic acid]",1 to 4,1 to 4,1 to 4,< 1,1 to 4,< 1,< 1,8 to 32
"C[C@@H](O)[C@H]1C(=O)N2C(C(=O)O)=C(S[C@@H]3CCN([C@H]4CC[C@H](NC(=N)N)CC4)C3)[C@H](C)[C@H]12 [Example 27, (4R,5S,6S)-3-(((R)-1-((1R,4R)-4-guanidinocyclohexyl)pyrrolidin-3-yl)thio)-6-((R)-1-hydroxyethyl)-4-methyl-7-oxo-1-azabicyclo[3.2.0]hept-2-ene-2-carboxylic acid]",1 to 4,1 to 4,1 to 4,< 1,8 to 32,< 1,1 to 4,8 to 32
"C[C@@H](O)[C@H]1C(=O)N2C(C(=O)O)=C(S[C@@H]3CCN(C4CCN(C)CC4)C3)[C@H](C)[C@H]12 [Example 29, (4R,5S,6S)-6-((R)-1-hydroxyethyl)-4-methyl-3-(((R)-1-(1-methylpiperidin-4-yl)pyrrolidin-3-yl)thio)-7-oxo-1-azabicyclo[3.2.0]hept-2-ene-2-carboxylic acid]",8 to 32,1 to 4,1 to 4,< 1,8 to 32,< 1,1 to 4,8 to 32
"C[C@@H](O)[C@H]1C(=O)N2C(C(=O)O)=C(S[C@@H]3CCN([C@@H]4CC[C@@H](NC(=N)N)C4)C3)[C@H](C)[C@H]12 [Example 30, (4R,5S,6S)-3-(((R)-1-((1R,3R)-3-guanidinocyclopentyl)pyrrolidin-3-yl)thio)-6-((R)-1-hydroxyethyl)-4-methyl-7-oxo-1-azabicyclo[3.2.0]hept-2-ene-2-carboxylic acid]",8 to 32,1 to 4,1 to 4,< 1,8 to 32,1 to 4,1 to 4,> 32
"C[C@@H](O)[C@H]1C(=O)N2C(C(=O)O)=C(S[C@@H]3CCN([C@H]4CC[C@@H](NC(=N)N)C4)C3)[C@H](C)[C@H]12 [Example 31, (4R,5S,6S)-3-(((R)-1-((1S,3R)-3-guanidinocyclopentyl)pyrrolidin-3-yl)thio)-6-((R)-1-hydroxyethyl)-4-methyl-7-oxo-1-azabicyclo[3.2.0]hept-2-ene-2-carboxylic acid]",1 to 4,< 1,1 to 4,< 1,1 to 4,< 1,< 1,8 to 32
"C[C@@H](O)[C@H]1C(=O)N2C(C(=O)O)=C(SC3CN(C[C@H]4CCCN4)C3)[C@H](C)[C@H]12 [Example 32, (4R,5S,6S)-6-((R)-1-hydroxyethyl)-4-methyl-7-oxo-3-((1-(((R)-pyrrolidin-2-yl)methyl)azetidin-3-yl)thio)-1-azabicyclo[3.2.0]hept-2-ene-2-carboxylic acid]",8 to 32,1 to 4,1 to 4,< 1,8 to 32,< 1,1 to 4,8 to 32
